How the values were obtained:
[1] = tested on: PBMC (polyclonal gluten-specific T cells) of paediatric and adult CD patients; details: corresponding adult data shown for comparison (14); cited from earlier work
[2] = tested on: PBMC (polyclonal gluten-specific T cells) of paediatric and adult CD patients; assay: IFN-γ ELISpot of PBMC after 3 day oral wheat challenge (SFU, % of maximal peptide response, dominance scores, EC50; Examples 5-6); type: cell-based, human; details: for Dominance score 3-5yrs (n = 9): CD children 3-5yrs, n = 9, following wheat challenge; for Dominance score 3-5yrs (n = 9) / Dominance score 6-10yrs (n = 10) / Dominance score 11-18yrs (n = 11): mean percentage of maximal peptide response; for Dominance score 6-10yrs (n = 10): CD children 6-10yrs, n = 10, following wheat challenge; for Dominance score 11-18yrs (n = 11): CD children 11-18yrs, n = 11, following wheat challenge; for Dominance score Mean all ages: CD children, following wheat challenge (Table 9); for dominance hierarchy across all age groupings: Example 5; for dominance hierarchy across all age groups: Example 6; for Dominance scores 3-5 yrs: children with celiac disease 3-5 yrs after wheat challenge (Table 14); for Dominance scores 6-10 yrs: children with celiac disease 6-10 yrs after wheat challenge (Table 14); for Dominance scores 11-18 yrs: children with celiac disease 11-18 yrs after wheat challenge (Table 14); for Dominance scores Mean all ages: mean of all subjects (Table 14); for IFN-γ ELISpot response: after oral wheat challenge
[3] = patient A, 11-17 yrs, cut-off 10 SFU
[4] = patient D, max peptide 30.5 SFU
[5] = patient E, H, 11-17 yrs, cut-off 10 SFU
[6] = patient F, 11-17 yrs, cut-off 10 SFU
[7] = patient G, 11-17 yrs, cut-off 10 SFU
[8] = patient H (HLA-DQ2.5 homozygote), 3-5yrs, cut-off 10 SFU
[9] = patient H, 11-17 yrs, cut-off 10 SFU
[10] = patient ID not given, 11-17 yrs, cut-off 10 SFU
[11] = patient ID not given, max peptide 95 SFU
[12] = patient N, 3-5yrs, cut-off 10 SFU
[13] = patient P, 11-17 yrs, cut-off 21.6 SFU
[14] = patient Q, 11-17 yrs, cut-off 10 SFU
[15] = patient U, H, 11-17 yrs, cut-off 10 SFU
[16] = patient V, 6-10 yrs, cut-off 10 SFU
[17] = patient Y, 6-10 yrs, cut-off 10 SFU
[18] = patient eleven, 6-10 yrs, cut-off 10 SFU
[19] = patient eleven, max peptide 57 SFU
[20] = patient five, max peptide 48 SFU
[21] = patient seven, 6-10 yrs, cut-off 10.5 SFU
[22] = patient ten, 3-5yrs, cut-off 10 SFU
[23] = patient three, 6-10 yrs, cut-off 10.5 SFU
[24] = patient twelve, 11-17 yrs, cut-off 10 SFU
[25] = patient two, 3-5yrs, cut-off 10 SFU
[26] = patient two, max peptide 60 SFU

Substance: LPYPQPELPYPQP [Peptide W01]
- Dominance scores 18+ yrs [1]: 69
- Dominance score 3-5yrs (n = 9) [2]: 68.5
- Dominance score 6-10yrs (n = 10) [2]: 71.7
- Dominance score 11-18yrs (n = 11) [2]: 51.0
- Dominance score Mean all ages [2]: 62.6
- dominance hierarchy across all age groupings [2]: most dominant three peptides
- dominance hierarchy across all age groups [2]: most dominant four peptides
- Dominance scores 3-5 yrs [2]: 65
- Dominance scores 6-10 yrs [2]: 72
- Dominance scores 11-18 yrs [2]: 51
- Dominance scores Mean all ages [2]: 62
- IFN-γ ELISpot response [2, 3]: 2 SFU
- Significant response as percentage of maximal peptide SFU [2, 4]: ′′ (21-40% = ′′)
- IFN-γ ELISpot response [2, 5]: 111 SFU
- Significant response as percentage of maximal peptide SFU ([2]; patient E, max peptide 224 SFU): ′′′ (41-70% = ′′′)
- IFN-γ ELISpot response [2, 6]: 161 SFU
- Significant response as percentage of maximal peptide SFU ([2]; patient F, max peptide 178 SFU): + (>70% = +)
- IFN-γ ELISpot response [2, 7]: 7 SFU
- IFN-γ ELISpot response [2, 8]: 33 SFU
- IFN-γ ELISpot response [2, 9]: 10 SFU
- Significant response as percentage of maximal peptide SFU ([2]; patient H, max peptide 17 SFU): ′′′ (41-70% = ′′′)
- IFN-γ ELISpot response [2, 10]: 62 SFU
- Significant response as percentage of maximal peptide SFU [2, 11]: ′′′ (41-70% = ′′′)
- Significant response as percentage of maximal peptide SFU ([2]; patient II, max peptide 15 SFU): + (>70% = +)
- Significant response as percentage of maximal peptide SFU ([2]; patient J, max peptide 196 SFU): + (>70% = +)
- Significant response as percentage of maximal peptide SFU ([2]; patient K, max peptide 53 SFU): + (>70% = +)
- Significant response as percentage of maximal peptide SFU ([2]; patient L, max peptide 11 SFU): + (>70% = +)
- Significant response as percentage of maximal peptide SFU ([2]; patient M, max peptide 48 SFU): ′′′ (41-70% = ′′′)
- IFN-γ ELISpot response [2, 12]: 6 SFU
- IFN-γ ELISpot response [2, 13]: 36 SFU
- Significant response as percentage of maximal peptide SFU ([2]; patient P, max peptide 64 SFU): ′′′ (41-70% = ′′′)
- IFN-γ ELISpot response [2, 14]: 78 SFU
- Significant response as percentage of maximal peptide SFU ([2]; patient Q, max peptide 97 SFU): + (>70% = +)
- IFN-γ ELISpot response [2, 15]: 44 SFU
- Significant response as percentage of maximal peptide SFU ([2]; patient U, max peptide 81 SFU): ′′′ (41-70% = ′′′)
- IFN-γ ELISpot response [2, 16]: 35 SFU
- Significant response as percentage of maximal peptide SFU ([2]; patient V, max peptide 35 SFU): + (>70% = +)
- IFN-γ ELISpot response [2, 17]: 16 SFU
- Significant response as percentage of maximal peptide SFU ([2]; patient Y, max peptide 16 SFU): + (>70% = +)
- IFN-γ ELISpot response [2, 18]: 45 SFU
- Significant response as percentage of maximal peptide SFU [2, 19]: + (>70% = +)
- Significant response as percentage of maximal peptide SFU [2, 20]: ′′′ (41-70% = ′′′)
- IFN-γ ELISpot response ([2]; patient four, 3-5yrs, cut-off 10 SFU): 44 SFU
- Significant response as percentage of maximal peptide SFU ([2]; patient four, max peptide 44 SFU): + (>70% = +)
- IFN-γ ELISpot response [2, 21]: 3 SFU
- IFN-γ ELISpot response [2, 22]: 9 SFU
- IFN-γ ELISpot response [2, 23]: 196 SFU
- IFN-γ ELISpot response [2, 24]: 12 SFU
- IFN-γ ELISpot response [2, 25]: 33 SFU
- Significant response as percentage of maximal peptide SFU [2, 26]: ′′′ (41-70% = ′′′)

Substance: LQPFPQPELPFPQP [Peptide W06]
- Dominance scores 18+ yrs [1]: 15
- Dominance score 3-5yrs (n = 9) [2]: 53.1
- Dominance score 6-10yrs (n = 10) [2]: 52.7
- Dominance score 11-18yrs (n = 11) [2]: 53.8
- Dominance score Mean all ages [2]: 53.2
- dominance hierarchy across all age groups [2]: most dominant four peptides
- Dominance scores 3-5 yrs [2]: 58
- Dominance scores 6-10 yrs [2]: 53
- Dominance scores 11-18 yrs [2]: 54
- Dominance scores Mean all ages [2]: 54
- IFN-γ ELISpot response [2, 3]: 5 SFU
- Significant response as percentage of maximal peptide SFU [2, 4]: ′′′ (41-70% = ′′′)
- IFN-γ ELISpot response [2, 5]: 103 SFU
- Significant response as percentage of maximal peptide SFU ([2]; patient E, max peptide 224 SFU): ′′′ (41-70% = ′′′)
- IFN-γ ELISpot response [2, 6]: 107 SFU
- Significant response as percentage of maximal peptide SFU ([2]; patient F, max peptide 178 SFU): ′′′′
- IFN-γ ELISpot response [2, 7]: 7 SFU
- IFN-γ ELISpot response [2, 8]: 41 SFU
- IFN-γ ELISpot response [2, 9]: 16 SFU
- Significant response as percentage of maximal peptide SFU ([2]; patient H, max peptide 17 SFU): + (>70% = +)
- IFN-γ ELISpot response [2, 10]: 59 SFU
- Significant response as percentage of maximal peptide SFU [2, 11]: ′′′ (41-70% = ′′′)
- Significant response as percentage of maximal peptide SFU ([2]; patient II, max peptide 15 SFU): + (>70% = +)
- Significant response as percentage of maximal peptide SFU ([2]; patient J, max peptide 196 SFU): ′′′ (41-70% = ′′′)
- Significant response as percentage of maximal peptide SFU ([2]; patient K, max peptide 53 SFU): ′′ (21-40% = ′′)
- Significant response as percentage of maximal peptide SFU ([2]; patient M, max peptide 48 SFU): + (>70% = +)
- IFN-γ ELISpot response [2, 12]: 4 SFU
- IFN-γ ELISpot response [2, 13]: 33 SFU
- Significant response as percentage of maximal peptide SFU ([2]; patient P, max peptide 64 SFU): ′′′ (41-70% = ′′′)
- IFN-γ ELISpot response [2, 14]: 65 SFU
- Significant response as percentage of maximal peptide SFU ([2]; patient Q, max peptide 97 SFU): ′′′ (41-70% = ′′′)
- IFN-γ ELISpot response [2, 15]: 54 SFU
- Significant response as percentage of maximal peptide SFU ([2]; patient U, max peptide 81 SFU): ′′′′
- IFN-γ ELISpot response [2, 16]: 22 SFU
- Significant response as percentage of maximal peptide SFU ([2]; patient V, max peptide 35 SFU): ′′′ (41-70% = ′′′)
- IFN-γ ELISpot response [2, 17]: 6 SFU
- Significant response as percentage of maximal peptide SFU ([2]; patient Z, max peptide 13 SFU): ′′ (21-40% = ′′)
- IFN-γ ELISpot response [2, 18]: 43 SFU
- Significant response as percentage of maximal peptide SFU [2, 19]: + (>70% = +)
- Significant response as percentage of maximal peptide SFU [2, 20]: ′′ (21-40% = ′′)
- IFN-γ ELISpot response [2, 21]: 15 SFU
- Significant response as percentage of maximal peptide SFU ([2]; patient seven, max peptide 27 SFU): ′′′ (41-70% = ′′′)
- IFN-γ ELISpot response ([2]; patient six, 3-5yrs, cut-off 10 SFU): 12 SFU
- Significant response as percentage of maximal peptide SFU ([2]; patient six, max peptide 13 SFU): + (>70% = +)
- IFN-γ ELISpot response [2, 22]: 10 SFU
- Significant response as percentage of maximal peptide SFU ([2]; patient ten, max peptide 14.5 SFU): + (>70% = +)
- IFN-γ ELISpot response [2, 23]: 112 SFU
- IFN-γ ELISpot response [2, 24]: 13 SFU
- IFN-γ ELISpot response [2, 25]: 26 SFU
- Significant response as percentage of maximal peptide SFU [2, 26]: ′′′ (41-70% = ′′′)

Substance: LQPFPQPELPYPQP [Peptide W02, contains DQ2.5-glia-a1a and a2]
- Dominance scores 18+ yrs [1]: 58
- magnitude of T cell responses, HLA-DQ2.5 homozygous vs heterozygous [2]: significantly greater
- EC50 compared between age groups ([2]; 17 children (3-5, 6-10, 11-18 yrs) and four adults, dose curve 0.1-50 ug/ml): a difference was observed between 3-5 yrs and 6-10 yrs
- Dominance score 3-5yrs (n = 9) [2]: 74.8
- Dominance score 6-10yrs (n = 10) [2]: 56.9
- Dominance score 11-18yrs (n = 11) [2]: 59.6
- Dominance score Mean all ages [2]: 63.3
- dominance hierarchy across all age groupings [2]: most dominant three peptides
- dominance hierarchy across all age groups [2]: most dominant four peptides
- response to native vs deamidated form ([2]; all age groups): Deamidation enhanced the response
- Dominance scores 3-5 yrs [2]: 77
- Dominance scores 6-10 yrs [2]: 57
- Dominance scores 11-18 yrs [2]: 60
- Dominance scores Mean all ages [2]: 64
- IFN-γ ELISpot responses Day 0 prior to vs Day 6 after wheat challenge ([2]; p<0.05, Kruskal Wallis): Significant gluten-specific responses were observed on Day 6 only

Substance: W08 (LQPFPQPELPYSQP) [Peptide W08]
- Dominance scores 18+ yrs [1]: 8
- Dominance score 3-5yrs (n = 9) [2]: 42.1
- Dominance score 6-10yrs (n = 10) [2]: 51.7
- Dominance score 11-18yrs (n = 11) [2]: 40.2
- Dominance score Mean all ages [2]: 44.9
- Dominance scores 3-5 yrs [2]: 45
- Dominance scores 6-10 yrs [2]: 52
- Dominance scores 11-18 yrs [2]: 40
- Dominance scores Mean all ages [2]: 45

Substance: W26 (PFPLQPEQPFPQP) [Peptide W26]
- Dominance scores 18+ yrs [1]: 0
- Dominance score 3-5yrs (n = 9) [2]: 39.4
- Dominance score 6-10yrs (n = 10) [2]: 61.6
- Dominance score 11-18yrs (n = 11) [2]: 35.0
- Dominance score Mean all ages [2]: 45.8
- Dominance scores 3-5 yrs [2]: 46
- Dominance scores 6-10 yrs [2]: 62
- Dominance scores 11-18 yrs [2]: 35
- Dominance scores Mean all ages [2]: 47

Source: patent US20170232083A1, “METHODS OF DIAGNOSIS AND TREATMENT OF CELIAC DISEASE IN CHILDREN” (priority 2014, published 2017)
